Data taken from patent US7615651B2, “Diaryl, dipyridinyl and aryl-pyridinyl derivatives and uses thereof” (Pfizer Inc., priority 2006, dated 2009).
Where two headings read alike, the source gives them in different places.

Key:
Format in all cases: biochemical
opioid receptor delta = target: T1, opioid receptor delta (Homo sapiens, UniProt P41143); test: GTPγ[35S] binding assay, antagonism of BW-373U86; details: read-out: Delta functional Ki (GTPγ[35S] binding)
T1 construct: expressed in transfected cells
T1 sequence (P41143 whole entry): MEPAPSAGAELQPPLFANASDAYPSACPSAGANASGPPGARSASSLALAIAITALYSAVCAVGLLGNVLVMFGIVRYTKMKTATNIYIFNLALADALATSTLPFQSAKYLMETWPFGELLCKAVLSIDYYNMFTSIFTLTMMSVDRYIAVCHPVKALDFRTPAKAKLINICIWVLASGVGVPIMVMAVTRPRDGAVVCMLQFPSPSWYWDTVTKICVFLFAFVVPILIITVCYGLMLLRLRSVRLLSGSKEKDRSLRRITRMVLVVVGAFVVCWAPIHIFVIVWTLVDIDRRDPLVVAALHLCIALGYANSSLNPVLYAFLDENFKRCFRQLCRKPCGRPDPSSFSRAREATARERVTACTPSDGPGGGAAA
Procedure: (§1) Membranes were prepared from cells as described (Bass et al, 1996). GTPγ[5S] binding assays were performed in a 96 well FlashPlate™ format in duplicate using […] GTPγ[^35S] and 5 μg membrane per well in assay buffer composed of 50 mM Tris HCl, pH 7.4, 5 mM MgCl2, 1 mM EDTA, 100 mM NaCl, 30 μM GDP, 0.1% bovine serum albumin and the following protease inhibitors: 100 μg/ml bacitracin, 100 μg/ml benzamidine, 5 μg/ml aprotinin, 5 μg/ml leupeptin. The assay mix was then incubated at 30° C. with increasing concentrations of antagonist (10^−10 M to 10^−5 M) for 10 minutes and challenged with the agonists BW-373U86 (1 nM), dynorphin-A (10 nM), […] (1 μM) for opioid receptors delta, kappa, and mu, respectively. The assays were performed at 30° C. for one hour. The FlashPlates were then centrifuged at 2000×g for 10 minutes. Stimulation of GTPγ[^35S] binding was then quantified using a Wallac Microbeta and Ki calculations were done using Prism™ by Graphpad.

opioid receptor kappa = target: T2, opioid receptor kappa (Homo sapiens, UniProt P41145); test: GTPγ[35S] binding assay, antagonism of dynorphin-A; details: read-out: Kappa functional Ki (GTPγ[35S] binding)
T2 construct: expressed in transfected cells
T2 sequence (P41145 whole entry): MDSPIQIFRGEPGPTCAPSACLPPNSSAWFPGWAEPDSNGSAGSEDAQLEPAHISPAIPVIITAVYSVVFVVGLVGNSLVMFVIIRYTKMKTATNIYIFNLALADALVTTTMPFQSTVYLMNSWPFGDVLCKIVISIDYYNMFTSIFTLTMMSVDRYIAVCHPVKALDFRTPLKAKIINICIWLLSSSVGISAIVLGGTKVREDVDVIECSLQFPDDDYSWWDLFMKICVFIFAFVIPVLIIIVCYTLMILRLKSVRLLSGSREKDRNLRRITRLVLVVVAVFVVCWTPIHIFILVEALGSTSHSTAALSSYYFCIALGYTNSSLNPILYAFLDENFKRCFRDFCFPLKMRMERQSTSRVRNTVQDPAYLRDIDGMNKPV
Procedure: as §1

opioid receptor mu = target: T3, opioid receptor mu (Homo sapiens, UniProt P35372); test: GTPγ[35S] binding assay, antagonism of endorphin; details: read-out: Mu functional Ki (GTPγ[35S] binding)
T3 construct: expressed in transfected cells
T3 sequence (P35372 whole entry): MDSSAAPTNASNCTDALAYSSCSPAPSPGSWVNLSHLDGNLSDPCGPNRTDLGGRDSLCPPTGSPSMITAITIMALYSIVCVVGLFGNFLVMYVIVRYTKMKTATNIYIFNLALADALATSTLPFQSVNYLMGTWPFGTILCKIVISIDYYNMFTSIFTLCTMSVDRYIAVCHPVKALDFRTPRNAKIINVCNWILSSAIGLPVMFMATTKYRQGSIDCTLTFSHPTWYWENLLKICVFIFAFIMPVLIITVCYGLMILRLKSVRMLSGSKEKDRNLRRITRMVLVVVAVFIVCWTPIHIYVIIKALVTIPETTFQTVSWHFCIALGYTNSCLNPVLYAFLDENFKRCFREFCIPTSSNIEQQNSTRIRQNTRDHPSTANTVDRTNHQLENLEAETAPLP
Procedure: as §1

[1] = average Ki, antagonism of BW-373U86 (1 nM) at delta opioid receptor membranes
[2] = average Ki, antagonism of dynorphin-A (10 nM) at kappa opioid receptor membranes
[3] = average Ki, antagonism of endorphin (1 μM) at mu opioid receptor membranes

Ki (opioid receptor delta) [nM] | Ki (opioid receptor kappa) [nM] | Ki (opioid receptor mu) [nM] | Ki (opioid receptor delta; [1]) [nM] | Ki (opioid receptor kappa; [2]) [nM] | Ki (opioid receptor mu; [3]) [nM] | SMILES
44.6 | 9.84 | 40.2 | – | – | – | CC(C)CCNCc1ccc(-c2ccc(C(N)=O)cc2OCc2ccccc2)cc1 [4B-45]
543 | 80.6 | 549 | – | – | – | CC(C)CCNCc1ccc(-c2ccc(C(N)=O)cc2O)cc1 [4B-47]
16.1 | 13.9 | 12 | – | – | – | CCc1cc(C(N)=O)ccc1-c1ccc(CNCCC(C)C)cc1 [4B-48]
6.66 | 2.31 | 2.72 | – | – | – | Cc1cc(C(N)=O)cc(Cl)c1-c1ccc(CNCCC(C)C)cc1 [4B-49]
– | – | – | 0.135 | 0.948 | 1.45 | Cc1cc(C(N)=O)ccc1-c1cc(F)c(CNCCC2CCOCC2)c(F)c1 [4B-50]
0.707 | 1.95 | 2.16 | – | – | – | Cc1cc(C(N)=O)ccc1-c1cc(F)c(CNCCC2CCOCC2)c(F)c1 [4B-51]
15.4 | 7.01 | 138 | – | – | – | CC[C@@H](NCc1c(F)cc(-c2ccc(C(N)=O)cc2C)cc1F)c1ccccn1 [4B-52]
3.74 | 43.1 | 92.7 | – | – | – | Cc1cc(C(N)=O)ccc1-c1cc(F)c(CN[C@H](C)c2ccccn2)c(F)c1 [4B-53]
14.5 | 15.4 | 37 | – | – | – | Cc1cc(C(N)=O)ccc1-c1cc(F)c(CNC2CCCC2)c(F)c1 [4B-54]
19 | 8.55 | 30.7 | – | – | – | Cc1cc(C(N)=O)ccc1-c1cc(F)c(CNC[C@@H]2CCCO2)c(F)c1 [4B-55]
8.44 | 9.04 | 36.8 | – | – | – | Cc1cc(C(N)=O)ccc1-c1ccc(CNCC2CCOCC2)c(F)c1 [4B-56]
168 | 4.58 | 12.7 | – | – | – | NC(=O)c1ccc(-c2cc(F)c(CNCCC3CCOCC3)c(F)c2)c(Cl)c1 [4B-57]
4.02 | 1.77 | 7.3 | – | – | – | NC(=O)c1ccc(-c2ccc(CNCCC3CCOCC3)c(F)c2)c(Cl)c1 [4B-58]
19.1 | 9.47 | 33.3 | – | – | – | Cc1cc(C(N)=O)ccc1-c1cc(F)c(CNCC2CCOCC2)c(F)c1 [4B-59]
1.43 | 1.49 | 3.9 | – | – | – | Cc1cc(C(N)=O)ccc1-c1ccc(CNCCC2CCOCC2)c(F)c1 [4B-60]
12.6 | 4.92 | 25.6 | – | – | – | CC(C)CCNCc1ccc(-c2ccc(C(N)=O)cc2Cl)c(F)c1 [4B-61]
3.58 | 2.56 | 6.4 | – | – | – | Cc1cc(CNCCC(C)C)ccc1-c1ccc(C(N)=O)cc1Cl [4B-62]
0.629 | 0.633 | 0.226 | – | – | – | NC(=O)c1ccc(-c2ccc(CNC3Cc4ccccc4C3)c(F)c2)c(Cl)c1 [4B-63]
5.64 | 3.97 | 12.1 | – | – | – | CC(C)CCNCc1ccc(-c2ccc(C(N)=O)cc2Cl)cc1F [4B-64]
4.79 | 2.15 | 10.8 | – | – | – | CC(C)CCNCc1ccc(-c2ccc(C(N)=O)cc2Cl)cc1Cl [4B-65]
7.52 | 2.52 | 7.83 | – | – | – | CC(C)CCNCc1ccc(-c2ccc(C(N)=O)cc2Cl)c(Cl)c1 [4B-66]
2.95 | 3.62 | 7.22 | – | – | – | NC(=O)c1ccc(-c2ccc(CNCCC3CCOCC3)cc2Cl)c(Cl)c1 [4B-67]
– | – | – | 0.724 | 0.759 | 0.24 | NC(=O)c1ccc(-c2ccc(CNC3Cc4ccccc4C3)cc2Cl)c(Cl)c1 [4B-68]
4.09 | 4.54 | 2.78 | – | – | – | NC(=O)c1ccc(-c2ccc(CNCCC3CCCCO3)cc2Cl)c(Cl)c1 (stereo not drawn) [4B-69]
1.04 | 2.48 | 2 | – | – | – | Cc1cc(CNCCC2CCOCC2)ccc1-c1ccc(C(N)=O)cc1C [4B-70]
6.2 | 6.91 | 8.37 | – | – | – | Cc1cc(CNCC2CCOCC2)ccc1-c1ccc(C(N)=O)cc1C [4B-71]
13 | 5.44 | 9.83 | – | – | – | Cc1cc(CNCC2CCCO2)ccc1-c1ccc(C(N)=O)cc1C (stereo not drawn) [4B-72]
0.135 | 0.318 | 0.0298 | – | – | – | Cc1cc(CNC2Cc3ccccc3C2)ccc1-c1ccc(C(N)=O)cc1C [4B-73]
4.8 | 4.45 | 4.37 | – | – | – | Cc1cc(C(N)=O)ccc1-c1cc(F)c(CNCCC(C)C)cc1F [4B-74]
